Assay results from paper PMC8550792, “Evolution of kinase polypharmacology across HSP90 drug discovery” (Cell Chemical Biology, 2021).
Like-named read-outs stand apart in the source and are kept apart here.

Columns and labels:
382 unique human kinases [1] = molecular target: T1, 382 unique human kinases (Homo sapiens, UniProt Q9BQI3); experiment: biochemical; format: biochemical; details: EIF2AK1; read-out: Control Compound IC50*
T1 construct: purchased Reaction Biology (HotSpot contract assay)
T1 sequence (Q9BQI3 whole entry): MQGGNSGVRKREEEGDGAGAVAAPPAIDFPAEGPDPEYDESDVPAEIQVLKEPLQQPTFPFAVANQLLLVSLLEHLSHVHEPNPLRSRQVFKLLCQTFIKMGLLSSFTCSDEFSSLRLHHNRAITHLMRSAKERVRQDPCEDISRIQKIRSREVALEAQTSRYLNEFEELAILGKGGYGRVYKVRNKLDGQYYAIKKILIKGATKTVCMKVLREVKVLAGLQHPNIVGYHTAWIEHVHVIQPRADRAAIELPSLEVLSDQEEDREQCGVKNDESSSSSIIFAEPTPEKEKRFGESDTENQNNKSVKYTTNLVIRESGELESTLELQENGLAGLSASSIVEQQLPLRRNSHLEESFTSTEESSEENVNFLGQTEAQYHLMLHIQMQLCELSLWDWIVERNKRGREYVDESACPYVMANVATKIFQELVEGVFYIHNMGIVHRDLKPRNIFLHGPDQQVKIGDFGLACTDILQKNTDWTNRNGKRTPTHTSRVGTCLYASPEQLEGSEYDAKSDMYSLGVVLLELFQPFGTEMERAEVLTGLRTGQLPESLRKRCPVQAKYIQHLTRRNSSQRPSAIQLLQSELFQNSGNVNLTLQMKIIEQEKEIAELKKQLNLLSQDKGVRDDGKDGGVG

382 unique human kinases [2] = experiment: biochemical; format: biochemical; details: cutoff of >85% inhibition at 10 μM; luminespib and ganetespib large kinome panel, others 16-kinase panel
[3] = known interaction (K) listed by CLARITY, cited from earlier work
382 unique human kinases [4] = molecular target: T2, 382 unique human kinases (Homo sapiens, UniProt P27361); experiment: biochemical; format: biochemical; details: ERK1; read-out: Control Compound IC50*
T2 construct: purchased Reaction Biology (HotSpot contract assay)
T2 sequence (P27361 whole entry): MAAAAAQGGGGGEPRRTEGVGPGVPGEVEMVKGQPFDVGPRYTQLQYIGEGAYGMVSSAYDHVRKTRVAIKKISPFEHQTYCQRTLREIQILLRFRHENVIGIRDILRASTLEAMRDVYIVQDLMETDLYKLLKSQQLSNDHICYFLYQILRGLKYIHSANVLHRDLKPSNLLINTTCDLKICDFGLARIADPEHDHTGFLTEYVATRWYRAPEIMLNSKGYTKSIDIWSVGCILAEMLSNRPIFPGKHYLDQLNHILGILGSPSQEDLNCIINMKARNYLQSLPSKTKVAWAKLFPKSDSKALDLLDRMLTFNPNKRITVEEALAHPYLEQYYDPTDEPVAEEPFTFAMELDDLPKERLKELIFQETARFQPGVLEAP

382 unique human kinases [5] = molecular target: T3, 382 unique human kinases (Homo sapiens, UniProt Q9BYP7); experiment: biochemical; format: biochemical; details: WNK3; read-out: Control Compound IC50*
T3 construct: purchased Reaction Biology (HotSpot contract assay)
T3 sequence (Q9BYP7 whole entry): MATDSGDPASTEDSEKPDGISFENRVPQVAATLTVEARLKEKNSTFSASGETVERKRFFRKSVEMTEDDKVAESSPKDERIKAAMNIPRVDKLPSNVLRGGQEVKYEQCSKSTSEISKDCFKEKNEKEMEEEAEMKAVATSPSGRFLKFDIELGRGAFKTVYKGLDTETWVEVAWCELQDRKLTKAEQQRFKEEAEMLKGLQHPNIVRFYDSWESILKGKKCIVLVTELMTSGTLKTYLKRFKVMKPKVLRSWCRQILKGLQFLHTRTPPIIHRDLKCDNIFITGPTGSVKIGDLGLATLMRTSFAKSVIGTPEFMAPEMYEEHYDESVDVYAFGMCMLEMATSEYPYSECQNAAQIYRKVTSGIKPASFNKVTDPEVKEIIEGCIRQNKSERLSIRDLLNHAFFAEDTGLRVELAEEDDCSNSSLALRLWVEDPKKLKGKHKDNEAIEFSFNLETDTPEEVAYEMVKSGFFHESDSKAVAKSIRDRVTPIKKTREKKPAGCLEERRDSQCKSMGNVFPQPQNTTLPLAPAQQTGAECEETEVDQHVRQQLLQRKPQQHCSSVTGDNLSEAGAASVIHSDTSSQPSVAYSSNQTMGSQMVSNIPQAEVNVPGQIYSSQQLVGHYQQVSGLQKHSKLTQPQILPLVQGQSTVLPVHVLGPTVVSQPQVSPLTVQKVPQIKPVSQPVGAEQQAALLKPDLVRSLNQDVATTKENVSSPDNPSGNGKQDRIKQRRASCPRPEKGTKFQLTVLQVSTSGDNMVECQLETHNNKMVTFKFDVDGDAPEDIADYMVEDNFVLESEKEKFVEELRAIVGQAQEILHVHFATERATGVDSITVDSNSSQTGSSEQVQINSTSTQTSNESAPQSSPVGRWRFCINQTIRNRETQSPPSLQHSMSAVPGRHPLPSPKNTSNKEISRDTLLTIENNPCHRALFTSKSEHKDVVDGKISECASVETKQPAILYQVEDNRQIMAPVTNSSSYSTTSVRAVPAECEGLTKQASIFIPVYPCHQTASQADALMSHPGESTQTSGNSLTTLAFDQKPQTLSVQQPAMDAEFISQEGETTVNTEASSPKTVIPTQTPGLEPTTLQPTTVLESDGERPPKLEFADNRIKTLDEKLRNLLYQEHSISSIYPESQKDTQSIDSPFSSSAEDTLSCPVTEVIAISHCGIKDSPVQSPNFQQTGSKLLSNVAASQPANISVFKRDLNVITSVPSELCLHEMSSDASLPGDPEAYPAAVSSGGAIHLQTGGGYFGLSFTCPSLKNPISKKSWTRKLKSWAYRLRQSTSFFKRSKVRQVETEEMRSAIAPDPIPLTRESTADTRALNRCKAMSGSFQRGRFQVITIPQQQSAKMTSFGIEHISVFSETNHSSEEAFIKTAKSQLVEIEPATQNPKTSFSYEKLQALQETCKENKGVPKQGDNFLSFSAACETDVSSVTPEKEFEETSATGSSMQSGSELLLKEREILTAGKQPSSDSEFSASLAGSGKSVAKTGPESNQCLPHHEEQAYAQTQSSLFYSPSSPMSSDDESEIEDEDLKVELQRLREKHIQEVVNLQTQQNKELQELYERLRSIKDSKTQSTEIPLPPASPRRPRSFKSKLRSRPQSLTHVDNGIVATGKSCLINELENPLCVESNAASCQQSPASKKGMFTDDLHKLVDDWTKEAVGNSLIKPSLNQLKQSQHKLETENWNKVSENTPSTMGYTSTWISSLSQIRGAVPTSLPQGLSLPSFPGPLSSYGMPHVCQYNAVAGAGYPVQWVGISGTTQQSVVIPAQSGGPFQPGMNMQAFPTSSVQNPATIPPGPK

382 unique human kinases [6] = molecular target: T4, 382 unique human kinases (Homo sapiens, UniProt Q96QT4); experiment: biochemical; format: biochemical; details: kinase TRPM7/CHAK1; read-out: Control Compound IC50*
T4 construct: purchased Reaction Biology (HotSpot contract assay)
T4 sequence (Q96QT4 whole entry): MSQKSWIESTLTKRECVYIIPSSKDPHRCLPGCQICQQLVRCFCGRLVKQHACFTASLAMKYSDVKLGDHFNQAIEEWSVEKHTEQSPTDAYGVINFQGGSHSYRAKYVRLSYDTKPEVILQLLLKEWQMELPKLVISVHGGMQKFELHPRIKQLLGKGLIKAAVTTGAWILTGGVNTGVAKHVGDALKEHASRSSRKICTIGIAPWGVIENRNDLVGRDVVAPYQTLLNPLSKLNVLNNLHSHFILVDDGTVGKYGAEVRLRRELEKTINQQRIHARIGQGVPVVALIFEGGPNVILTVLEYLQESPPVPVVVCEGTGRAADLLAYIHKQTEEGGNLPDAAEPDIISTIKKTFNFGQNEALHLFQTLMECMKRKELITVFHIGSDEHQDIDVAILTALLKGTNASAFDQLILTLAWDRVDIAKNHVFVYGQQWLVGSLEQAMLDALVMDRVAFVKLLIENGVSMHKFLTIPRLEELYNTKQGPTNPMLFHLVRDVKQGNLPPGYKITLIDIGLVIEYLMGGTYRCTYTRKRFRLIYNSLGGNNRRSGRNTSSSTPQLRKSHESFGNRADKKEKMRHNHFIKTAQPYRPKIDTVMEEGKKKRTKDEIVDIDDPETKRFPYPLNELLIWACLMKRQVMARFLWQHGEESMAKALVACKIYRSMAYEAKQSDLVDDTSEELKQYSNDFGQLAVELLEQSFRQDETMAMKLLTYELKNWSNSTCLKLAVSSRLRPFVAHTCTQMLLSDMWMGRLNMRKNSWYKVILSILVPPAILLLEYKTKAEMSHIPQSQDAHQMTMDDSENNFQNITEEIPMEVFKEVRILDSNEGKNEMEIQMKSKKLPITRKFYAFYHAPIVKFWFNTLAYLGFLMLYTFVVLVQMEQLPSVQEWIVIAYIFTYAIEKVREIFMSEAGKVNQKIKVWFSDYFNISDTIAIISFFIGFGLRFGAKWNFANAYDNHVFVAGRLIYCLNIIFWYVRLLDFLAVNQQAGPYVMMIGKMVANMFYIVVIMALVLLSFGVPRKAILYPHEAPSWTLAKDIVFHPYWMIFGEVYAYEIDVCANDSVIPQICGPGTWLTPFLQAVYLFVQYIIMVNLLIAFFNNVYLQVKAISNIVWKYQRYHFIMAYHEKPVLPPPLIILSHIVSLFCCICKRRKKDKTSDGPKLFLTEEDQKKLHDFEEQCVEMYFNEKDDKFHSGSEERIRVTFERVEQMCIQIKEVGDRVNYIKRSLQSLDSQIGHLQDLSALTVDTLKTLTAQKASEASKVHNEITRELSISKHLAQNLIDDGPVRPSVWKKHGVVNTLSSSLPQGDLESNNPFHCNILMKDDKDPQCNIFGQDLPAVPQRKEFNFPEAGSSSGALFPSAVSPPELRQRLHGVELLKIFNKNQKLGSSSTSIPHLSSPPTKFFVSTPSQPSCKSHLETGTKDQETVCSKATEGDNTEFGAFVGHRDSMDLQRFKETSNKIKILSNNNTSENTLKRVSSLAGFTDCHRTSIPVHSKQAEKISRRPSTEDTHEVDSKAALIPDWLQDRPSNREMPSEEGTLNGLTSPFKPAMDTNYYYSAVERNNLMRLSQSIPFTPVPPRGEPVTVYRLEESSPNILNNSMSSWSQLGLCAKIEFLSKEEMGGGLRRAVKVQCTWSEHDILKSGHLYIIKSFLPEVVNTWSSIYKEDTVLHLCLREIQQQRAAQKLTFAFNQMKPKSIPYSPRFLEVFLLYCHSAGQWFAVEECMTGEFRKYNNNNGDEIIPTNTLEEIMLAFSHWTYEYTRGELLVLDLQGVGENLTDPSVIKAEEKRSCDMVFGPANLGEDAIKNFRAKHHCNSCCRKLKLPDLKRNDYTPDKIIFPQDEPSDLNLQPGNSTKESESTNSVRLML

SMILES: Cn1cc(-c2ccc3c(c2)CCN3C(=O)Cc2cccc(C(F)(F)F)c2)c2c(N)ncnc21 [GSK-2606414]
- IC50 (382 unique human kinases [1]): 92.1 nM

SMILES: COc1c(C)cnc(Cn2cnc3c(Cl)nc(N)nc32)c1C [BIIB021]
- number of off-target kinases experimentally identified, In vitro binding (KinomeSCAN) (382 unique human kinases [2]): 0
- pACT(exp) ([3]; Endoplasmin (P14625)): 6.8
- pACT(exp) ([3]; Heat shock protein 75 kDa, mitochondrial (Q12931)): 7.1
- pACT(exp) ([3]; Heat shock protein HSP 90-alpha (P07900)): 8.1
- pACT(exp) ([3]; Heat shock protein HSP 90-beta (P08238)): 7.8

SMILES: O=C(Nc1ccc2[nH]nc(-c3ccncc3)c2c1)[C@@H]1CCN(CC(=O)N2CCN(c3ccc(-c4ncccn4)cc3)CC2)C1 [SCH772984]
- IC50 (382 unique human kinases [4]): 9.81 nM

SMILES: O=C1NC(=O)c2c1c(-c1ccccc1Cl)cc1[nH]c3ccc(O)cc3c21 [Wee-1 Inhibitor]
- IC50 (382 unique human kinases [5]): 3570 nM

SMILES: CCCCCCCCCCCCCCCCn1cc[n+](Cc2ccccc2)c1C [NH125]
- IC50 (382 unique human kinases [6]): 9950 nM
